Converted amounts (≈) assume the structure as drawn.
Experiments:
[1] = SUPPLEMENTARY: PAMPA permeability assay; type: physicochemical; details: read-out: Permeability
[2] = SUPPLEMENTARY: Lyophilisation Solubility Assay (LYSA); type: physicochemical; details: read-out: Kinetic_solubility
[3] = SUPPLEMENTARY: Lipophilicity (log D) Determination by high-throughput shake-flask; type: physicochemical; details: octanol/water
[4] = biological target: T1, Carnitine O-palmitoyltransferase 1, liver isoform (Homo sapiens, UniProt P50416); assay: (§1) SUPPLEMENTARY: Inhibition of Carnitine palmitoyltransferase 1, liver isoform
T1 sequence (P50416 whole entry): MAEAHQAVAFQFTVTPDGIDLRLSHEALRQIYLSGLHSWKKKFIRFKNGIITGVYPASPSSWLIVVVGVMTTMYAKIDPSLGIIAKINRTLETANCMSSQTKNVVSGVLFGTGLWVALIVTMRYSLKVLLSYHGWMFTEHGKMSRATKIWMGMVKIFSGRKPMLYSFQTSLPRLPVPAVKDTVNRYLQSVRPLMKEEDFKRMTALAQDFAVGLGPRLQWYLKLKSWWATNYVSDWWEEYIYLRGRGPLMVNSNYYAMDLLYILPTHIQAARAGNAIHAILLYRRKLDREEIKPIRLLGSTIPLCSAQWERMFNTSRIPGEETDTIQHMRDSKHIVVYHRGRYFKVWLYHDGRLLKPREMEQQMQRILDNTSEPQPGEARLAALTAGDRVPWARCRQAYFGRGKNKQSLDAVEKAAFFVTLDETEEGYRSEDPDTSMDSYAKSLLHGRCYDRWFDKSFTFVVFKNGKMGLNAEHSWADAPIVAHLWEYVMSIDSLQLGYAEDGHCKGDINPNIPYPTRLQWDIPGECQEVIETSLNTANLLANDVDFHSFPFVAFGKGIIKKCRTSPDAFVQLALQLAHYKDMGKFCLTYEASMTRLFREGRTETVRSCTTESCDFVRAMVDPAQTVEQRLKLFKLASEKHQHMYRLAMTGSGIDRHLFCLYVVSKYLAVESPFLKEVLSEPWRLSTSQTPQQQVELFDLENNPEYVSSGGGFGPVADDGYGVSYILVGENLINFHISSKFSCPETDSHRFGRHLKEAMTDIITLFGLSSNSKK

[5] = biological target: T2, Carnitine O-palmitoyltransferase 1, liver isoform (Rattus norvegicus, UniProt P32198); assay: as §1
T2 sequence (P32198 whole entry): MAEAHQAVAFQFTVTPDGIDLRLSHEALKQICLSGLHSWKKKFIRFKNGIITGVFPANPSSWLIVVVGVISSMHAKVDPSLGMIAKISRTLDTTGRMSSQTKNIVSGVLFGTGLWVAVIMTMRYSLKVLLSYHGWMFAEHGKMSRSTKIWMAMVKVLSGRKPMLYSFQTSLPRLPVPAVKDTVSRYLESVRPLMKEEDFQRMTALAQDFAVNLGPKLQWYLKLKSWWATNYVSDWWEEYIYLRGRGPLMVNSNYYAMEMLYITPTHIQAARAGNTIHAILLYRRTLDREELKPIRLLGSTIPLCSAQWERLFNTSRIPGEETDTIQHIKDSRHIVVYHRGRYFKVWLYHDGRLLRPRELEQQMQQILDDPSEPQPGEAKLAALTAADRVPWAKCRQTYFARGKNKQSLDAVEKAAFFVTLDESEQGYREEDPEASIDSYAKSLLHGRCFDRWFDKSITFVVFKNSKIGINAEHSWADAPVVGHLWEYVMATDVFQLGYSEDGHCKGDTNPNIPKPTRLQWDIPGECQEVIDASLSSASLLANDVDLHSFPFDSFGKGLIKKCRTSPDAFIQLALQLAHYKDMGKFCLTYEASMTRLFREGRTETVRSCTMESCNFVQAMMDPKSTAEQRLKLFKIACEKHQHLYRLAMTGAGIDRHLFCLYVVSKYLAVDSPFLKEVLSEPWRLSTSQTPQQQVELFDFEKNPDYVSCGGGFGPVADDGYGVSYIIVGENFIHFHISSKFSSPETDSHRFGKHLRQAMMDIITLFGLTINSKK

[6] = biological target: T3, Carnitine O-palmitoyltransferase 2, mitochondrial (Homo sapiens, UniProt P23786); assay: (§2) SUPPLEMENTARY: Inhibition of Carnitine palmitoyltransferase 2
T3 sequence (P23786 whole entry): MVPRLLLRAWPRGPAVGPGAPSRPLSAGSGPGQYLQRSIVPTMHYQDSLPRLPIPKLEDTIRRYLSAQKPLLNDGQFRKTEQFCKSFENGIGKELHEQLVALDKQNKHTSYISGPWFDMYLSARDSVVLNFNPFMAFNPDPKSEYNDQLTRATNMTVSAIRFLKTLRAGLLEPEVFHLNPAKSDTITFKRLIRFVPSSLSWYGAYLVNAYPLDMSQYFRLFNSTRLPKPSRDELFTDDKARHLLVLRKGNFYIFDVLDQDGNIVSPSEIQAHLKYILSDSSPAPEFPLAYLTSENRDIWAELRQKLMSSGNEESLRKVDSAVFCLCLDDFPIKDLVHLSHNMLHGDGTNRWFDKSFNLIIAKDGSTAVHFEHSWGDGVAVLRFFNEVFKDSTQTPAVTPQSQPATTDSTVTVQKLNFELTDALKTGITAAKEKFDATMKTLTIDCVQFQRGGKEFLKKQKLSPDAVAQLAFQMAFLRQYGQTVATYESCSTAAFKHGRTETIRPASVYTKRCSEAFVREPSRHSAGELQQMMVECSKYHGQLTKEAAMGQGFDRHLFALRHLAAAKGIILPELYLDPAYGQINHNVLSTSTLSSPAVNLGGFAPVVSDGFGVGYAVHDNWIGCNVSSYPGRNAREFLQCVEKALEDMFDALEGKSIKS

[7] = biological target: T4, Carnitine O-palmitoyltransferase 2, mitochondrial (Rattus norvegicus, UniProt P18886); assay: as §2
T4 sequence (P18886 whole entry): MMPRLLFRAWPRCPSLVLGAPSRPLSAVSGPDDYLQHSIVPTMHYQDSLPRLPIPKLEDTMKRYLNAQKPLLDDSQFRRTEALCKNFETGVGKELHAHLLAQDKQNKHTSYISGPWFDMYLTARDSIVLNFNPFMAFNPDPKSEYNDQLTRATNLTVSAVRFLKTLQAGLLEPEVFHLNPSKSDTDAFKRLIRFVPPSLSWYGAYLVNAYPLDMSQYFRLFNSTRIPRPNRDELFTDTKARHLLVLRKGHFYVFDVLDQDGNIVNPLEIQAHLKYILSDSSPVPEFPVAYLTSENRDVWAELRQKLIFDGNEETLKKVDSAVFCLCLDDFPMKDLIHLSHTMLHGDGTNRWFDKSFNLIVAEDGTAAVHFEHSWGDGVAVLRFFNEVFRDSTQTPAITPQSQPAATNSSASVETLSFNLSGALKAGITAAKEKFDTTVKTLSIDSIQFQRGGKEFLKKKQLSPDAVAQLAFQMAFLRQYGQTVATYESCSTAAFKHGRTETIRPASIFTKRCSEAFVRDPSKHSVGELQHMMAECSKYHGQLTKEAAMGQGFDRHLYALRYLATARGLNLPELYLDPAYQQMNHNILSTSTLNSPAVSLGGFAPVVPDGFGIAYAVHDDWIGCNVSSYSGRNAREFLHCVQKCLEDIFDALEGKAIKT

[8] = biological target: T5, Carnitine O-palmitoyltransferase 1, muscle isoform (Homo sapiens, UniProt Q92523); assay: SUPPLEMENTARY: Inhibition of Carnitine palmitoyltransferase 1, muscle isoform; set-up: species or system Muscle tissue
T5 sequence (Q92523 whole entry): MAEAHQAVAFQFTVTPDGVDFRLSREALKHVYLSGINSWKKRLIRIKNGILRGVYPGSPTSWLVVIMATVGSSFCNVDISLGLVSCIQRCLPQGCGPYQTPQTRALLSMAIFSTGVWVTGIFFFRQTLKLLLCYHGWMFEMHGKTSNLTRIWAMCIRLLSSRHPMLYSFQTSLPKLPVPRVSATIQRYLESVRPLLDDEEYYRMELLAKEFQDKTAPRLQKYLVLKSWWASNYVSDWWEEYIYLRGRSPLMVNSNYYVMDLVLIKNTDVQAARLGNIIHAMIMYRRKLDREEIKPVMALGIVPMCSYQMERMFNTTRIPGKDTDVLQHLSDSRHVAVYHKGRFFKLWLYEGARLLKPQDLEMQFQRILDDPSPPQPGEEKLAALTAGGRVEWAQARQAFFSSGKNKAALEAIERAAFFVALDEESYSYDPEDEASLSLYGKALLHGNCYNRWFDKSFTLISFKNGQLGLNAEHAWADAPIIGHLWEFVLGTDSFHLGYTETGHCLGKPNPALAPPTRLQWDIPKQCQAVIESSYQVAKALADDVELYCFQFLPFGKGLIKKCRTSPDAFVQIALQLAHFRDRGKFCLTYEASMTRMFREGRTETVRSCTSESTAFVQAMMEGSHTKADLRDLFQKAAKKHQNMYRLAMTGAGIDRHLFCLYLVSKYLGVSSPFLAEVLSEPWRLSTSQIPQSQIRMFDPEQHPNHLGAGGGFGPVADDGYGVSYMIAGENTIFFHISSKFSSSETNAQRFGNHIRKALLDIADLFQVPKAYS

Row | Compound | Papp [1] [×10⁻⁶ cm/s] | solubility kinetic [2] [µg/mL] | logD [3] | IC50 [4] [µM] | IC50 [5] [µM] | IC50 [6] [µM] | IC50 [7] [µM] | IC50 [8] [µM]
1 | COc1ccc(Cl)cc1S(=O)(=O)N1CCc2ccc(C(=O)Nc3nc(CC(=O)O)cs3)cc21 | 3.25 | 48 (≈ 94.5 µM) | 0.17 | 0.0223 | 0.0152 | > 100 | > 100 | 1.31
2 | O=C(O)c1ccc(NC(=O)c2ccc3c(c2)N(S(=O)(=O)c2cccc(Cl)c2)CCS3)cc1 | 2.81 | 20 (≈ 40.9 µM) | 1.48 | 0.0822 | 0.043 | 1.95 | 5.64 | 7.33
3 | CC(=O)Nc1cc(F)cc(-c2n[nH]c([C@H]3CCCCN3C(=O)COc3ccccc3)n2)c1 | 1.69 | 37 (≈ 84.6 µM) | 3.22 | 0.0264 | 0.0656 | > 100 | > 100 | > 100
4 | Cc1ncc(-c2noc([C@H]3CCCCN3C(=O)COc3ccccc3)n2)c(=O)[nH]1 | 3.03 | > 505 | 1.14 | 0.14 | 1.56 | > 100 | > 100 | > 100
5 | Cc1cc(-c2nc([C@H]3CCCCN3C(=O)COc3ccccc3)no2)n(C)n1 | 6.42 | 55 (≈ 144 µM) | 3.13 | 0.228 | 0.33 | 16.3 | > 100 | > 100
6 | CS(=O)(=O)NCc1cccc(-c2nc([C@H]3CCCCN3C(=O)COc3ccccc3)no2)c1 | 1.77 | 94 (≈ 200 µM) | 2.44 | 0.0654 | 0.16 | 22.8 | > 100 | > 100
7 | O=C(COc1ccccc1)N1CCCC[C@@H]1c1nc(-c2ccc(Cl)cc2)no1 | 0.962 | 11 (≈ 27.6 µM) | > 3 | 0.19 | 0.228 | > 100 | > 100 | > 100

— ChEMBL document CHEMBL3431459, “Roche carnitine palmitoyltransferase modulator screening data (supplementary data associated with the publication CHEMBL2216752)”
